Experimental data reported in patent US5888998A, “2-oxo-1-azetidine sulfonic acid derivatives as potent β-lactamase inhibitors” (Synphar Laboratories, Inc., priority 1997, dated 1999).
Structures can show the parent of a compound that is named as a salt.

Key:
[1] = target: T1, cephalosporinase (Pseudomonas aeruginosa, UniProt P24735); test: β-lactamase inhibitory activity, spectrophotometric rate assay with nitrocefin as substrate; assay type: biochemical, P. aeruginosa 46012
T1 construct: nitrocefin as substrate; purification not described
Source text: As already said, the oxyimino fragment i.e., =N--OR2 in the formula (I) in its `anti` orientation provides excellent synergy with a β-lactam antibiotic against class C β-lactamase (cephalosporinase) producing microorganisms, P. aeruginosa, in particular. Thus this invention includes only those compounds having the formula (I) in which the oxyimino group (=N--OR2) is specifically in the `anti` orientation as shown in (I). Furthermore, the inhibitory activity against the isolated β-lactamase (e.g., cephalosporinase from P. aeruginosa 46012) and the synergy with a β-lactam antibiotic is greatly influenced by the nature of the heterocyclic ring represented by R1 and the nature of the substituent in the oxime fragment represented by R2.
The inhibitory activities of present compounds (β-lactamase inhibitors) against cephalosporinase was measured by spectrophotometric rate assay using […] and using nitrocefin as a substrate (J. Antimicrob. Chemother., vol. 28, pp 775-776, 1991).

[2] = tested on: β-lactamase; conditions: cited from earlier work
[3] = tested on: P. aeruginosa AU-8; test: MIC of ceftazidime, microbroth dilution; assay type: cell-based; conditions: Pseudomonas aeruginosa, AU8, 18 h, read-out: MIC of ceftazidime alone
Protocol: (§1) […]. After incubation in Mueller-Hinton Broth (Difco) at 37° C. for 18 h, the bacterial suspension was diluted and about 10^5 CFU/ml was applied to the drug-containing Mueller-Hinton Broth in each well of 96 well plate. The MICs were recorded after 18 h of incubation at 37° C. on the lowest combinations of drug that inhibited visible growth of bacteria.

[4] = tested on: E. aerogenes S-95; test: MIC of ceftazidime, microbroth dilution; assay type: cell-based; conditions: Klebsiella aerogenes, S95, 18 h, read-out: MIC of ceftazidime alone
Protocol: as §1

[5] = tested on: P. fluorescens sp 5953; test: MIC of ceftazidime, microbroth dilution; assay type: cell-based; conditions: Pseudomonas fluorescens, SP5953, 18 h, read-out: MIC of ceftazidime alone
Protocol: as §1

[6] = tested on: P. aeruginosa AU-7; test: MIC of ceftazidime, microbroth dilution; assay type: cell-based; conditions: Pseudomonas aeruginosa, AU7, 18 h, read-out: MIC of ceftazidime alone
Protocol: as §1

[7] = tested on: P. aeruginosa CT-137; test: MIC of ceftazidime, microbroth dilution; assay type: cell-based; conditions: Pseudomonas aeruginosa, CT137, 18 h, read-out: MIC of ceftazidime alone
Protocol: as §1

[8] = tested on: P. aeruginosa AU-10; test: MIC of ceftazidime, microbroth dilution; assay type: cell-based; conditions: Pseudomonas aeruginosa, AU10, 18 h, read-out: MIC of ceftazidime alone
Protocol: as §1

[9] = tested on: P. aeruginosa AU-5; test: MIC of ceftazidime, microbroth dilution; assay type: cell-based; conditions: Pseudomonas aeruginosa, AU5, 18 h, read-out: MIC of ceftazidime alone
Protocol: as §1

[10] = tested on: P. aeruginosa 46220 DR-2-1; test: MIC of ceftazidime, microbroth dilution; assay type: cell-based; conditions: Pseudomonas aeruginosa, 46220DR21, 18 h, read-out: MIC of ceftazidime alone
Protocol: as §1

[11] = tested on: P. aeruginosa PAO 303 carb-4; test: MIC of ceftazidime, microbroth dilution; assay type: cell-based; conditions: Pseudomonas aeruginosa, PAO303CARB4, 18 h, read-out: MIC of ceftazidime alone
Protocol: as §1

[12] = tested on: P. aeruginosa M 1405; test: MIC of ceftazidime, microbroth dilution; assay type: cell-based; conditions: Pseudomonas aeruginosa, M1405, 18 h, read-out: MIC of ceftazidime alone
Protocol: as §1

[13] = tested on: P. aeruginosa L46004; test: MIC of ceftazidime, microbroth dilution; assay type: cell-based; conditions: Pseudomonas aeruginosa, L46004, 18 h, read-out: MIC of ceftazidime alone
Protocol: as §1

[14] = tested on: E. aerogenes 41006; test: MIC of ceftazidime, microbroth dilution; assay type: cell-based; conditions: Klebsiella aerogenes, 41006, 18 h, read-out: MIC of ceftazidime alone
Protocol: as §1

[15] = tested on: P. aeruginosa 46017; test: MIC of ceftazidime, microbroth dilution; assay type: cell-based; conditions: Pseudomonas aeruginosa, 46017, 18 h, read-out: MIC of ceftazidime alone
Protocol: as §1

[16] = tested on: P. aeruginosa 46012 (R); test: MIC of ceftazidime, microbroth dilution; assay type: cell-based; conditions: Pseudomonas aeruginosa, 18 h, read-out: MIC of ceftazidime alone
Protocol: as §1

[17] = tested on: P. aeruginosa sp 2439 Wt.; test: MIC of ceftazidime, microbroth dilution; assay type: cell-based; conditions: Pseudomonas aeruginosa, SP2439WT., 18 h, read-out: MIC of ceftazidime alone
Protocol: as §1

[18] = tested on: P. aeruginosa M 2297; test: MIC of ceftazidime, microbroth dilution; assay type: cell-based; conditions: Pseudomonas aeruginosa, M2297, 18 h, read-out: MIC of ceftazidime alone
Protocol: as §1

[19] = tested on: M. morganii 36030; test: MIC of ceftazidime, microbroth dilution; assay type: cell-based; conditions: Morganella morganii, 36030, 18 h, read-out: MIC of ceftazidime alone
Protocol: as §1

[20] = tested on: P. aeruginosa CT-122; test: MIC of ceftazidime, microbroth dilution; assay type: cell-based; conditions: Pseudomonas aeruginosa, CT122, 18 h, read-out: MIC of ceftazidime alone
Protocol: as §1

[21] = tested on: P. aeruginosa CT-144; test: MIC of ceftazidime, microbroth dilution; assay type: cell-based; conditions: Pseudomonas aeruginosa, CT144, 18 h, read-out: MIC of ceftazidime alone
Protocol: as §1

[22] = tested on: P. aeruginosa AU-1; test: MIC of ceftazidime, microbroth dilution; assay type: cell-based; conditions: Pseudomonas aeruginosa, AU1, 18 h, read-out: MIC of ceftazidime alone
Protocol: as §1

[23] = tested on: M. morganii 36014; test: MIC of ceftazidime, microbroth dilution; assay type: cell-based; conditions: Morganella morganii, 36014, 18 h, read-out: MIC of ceftazidime alone
Protocol: as §1

[24] = tested on: P. aeruginosa 46220 DR-2; test: MIC of ceftazidime, microbroth dilution; assay type: cell-based; conditions: Pseudomonas aeruginosa, 46220DR2, alone, 18 h, 37° C.
Protocol: The MICs of the antibiotics (ceftazidime) alone, the MICs of ceftazidime in combination with reference compounds particularly aztreonam (ref. compd. I) and the MICs of the β-lactamase inhibitors (10 μg/ml) of the present invention in combination with ceftazidime were determined with the same β-lactamase producing bacteria. After incubation in Mueller-Hinton Broth (Difco) at 37° C. for 18 h, the bacterial suspension was diluted and about 10^5 CFU/ml was applied to the drug-containing Mueller-Hinton Broth in each well of 96 well plate. The MICs were recorded after 18 h of incubation at 37° C. on the lowest combinations of drug that inhibited visible growth of bacteria.

[25] = tested on: E. cloacae P99; test: microbe, parasite or virus in culture; assay type: cell-based; conditions: Enterobacter cloacae, P99, 18 h, read-out: MIC of ceftazidime alone
Protocol: (§2) After incubation in Mueller-Hinton Broth (Difco) at 37° C. for 18 h, the bacterial suspension was diluted and about 10^5 CFU/ml was applied to the drug-containing Mueller-Hinton Broth in each well of 96 well plate. The MICs were recorded after 18 h of incubation at 37° C. on the lowest combinations of drug that inhibited visible growth of bacteria.

[26] = tested on: E. cloacae MNH-2; test: MIC of ceftazidime, microbroth dilution; assay type: cell-based; conditions: Enterobacter cloacae, MNH2, 18 h, read-out: MIC of ceftazidime alone
Protocol: as §2

[27] = tested on: E. cloacae 40054; test: MIC of ceftazidime, microbroth dilution; assay type: cell-based; conditions: Enterobacter cloacae, 40054, 18 h, read-out: MIC of ceftazidime alone
Protocol: as §2

T1 sequence (P24735 27-397): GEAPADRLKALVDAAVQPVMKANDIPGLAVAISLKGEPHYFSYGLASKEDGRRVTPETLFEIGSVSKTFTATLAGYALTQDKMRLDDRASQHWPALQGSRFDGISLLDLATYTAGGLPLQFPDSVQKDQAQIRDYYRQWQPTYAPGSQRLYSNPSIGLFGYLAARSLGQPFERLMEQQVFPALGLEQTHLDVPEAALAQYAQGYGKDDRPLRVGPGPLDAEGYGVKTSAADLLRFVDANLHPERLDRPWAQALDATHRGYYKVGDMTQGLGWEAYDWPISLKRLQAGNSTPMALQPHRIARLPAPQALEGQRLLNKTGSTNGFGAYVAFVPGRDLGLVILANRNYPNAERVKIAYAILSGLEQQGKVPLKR

C[C@H]1[C@H](NC(=O)/C(=N/OCc2cc(=O)c(O)cn2O)c2cccs2)C(=O)N1S(=O)(=O)O [Compound 1, (3S)-trans-3-[(E)-2-(2-thienyl)-2-{(1,5-dihydroxy-4-pyridon-2-ylmethoxy)imino}acetamido]-4-methyl-2-oxoazetidine-1-sulfonic acid]
IC50 [1]: 60 nM

C[C@H]1[C@H](NC(=O)/C(=N/OCc2cc(=O)c(O)cn2O)c2cccs2)C(=O)N1S(=O)(=O)O [Compound 2]
IC50 [1]: 40 nM

C[C@H]1[C@H](NC(=O)/C(=N/OCc2cc(=O)c(O)cn2O)c2cccs2)C(=O)N1S(=O)(=O)O [Compound 3]
IC50 [1]: 10 nM

CC(O/N=C(/C(=O)N[C@@H]1C(=O)N(S(=O)(=O)O)[C@H]1C)c1cccs1)c1cc(=O)c(O)cn1O (some centres unmarked) [Compound 4]
IC50 [1]: 60 nM

C=CCC(O/N=C(/C(=O)N[C@@H]1C(=O)N(S(=O)(=O)O)[C@H]1C)c1cccs1)c1cc(=O)c(O)cn1O (some centres unmarked) [Compound 5]
IC50 [1]: 50 nM

C[C@H]1[C@H](NC(=O)/C(=N/OC(c2ccc(F)cc2)c2cc(=O)c(O)cn2O)c2cccs2)C(=O)N1S(=O)(=O)O (some centres unmarked) [Compound 6]
IC50 [1]: 100 nM

C[C@H]1[C@H](NC(=O)/C(=N/OCCSCc2cc(=O)c(O)cn2O)c2cccs2)C(=O)N1S(=O)(=O)O [Compound 7]
IC50 [1]: 60 nM

C[C@H]1[C@H](NC(=O)/C(=N/OCCNC(=O)/C(=N\OCc2cc(=O)c(O)cn2O)c2cccs2)c2cccs2)C(=O)N1S(=O)(=O)O [Compound 9]
IC50 [1]: 6 nM

C[C@H]1[C@H](NC(=O)/C(=N/OCCNC(=O)/C(=N/OCc2cc(=O)c(O)cn2O)c2cccs2)c2cccs2)C(=O)N1S(=O)(=O)O [Compound 10]
IC50 [1]: 1 nM

C/C(=N/OCc1cc(=O)c(O)cn1O)C(=O)NCCO/N=C(/C(=O)N[C@@H]1C(=O)N(S(=O)(=O)O)[C@H]1C)c1cccs1 [Compound 11]
IC50 [1]: 50 nM

C[C@H]1[C@H](NC(=O)/C(=N/OCCNC(=O)/C(=N\OCc2cc(=O)c(O)cn2O)c2csc(N)n2)c2cccs2)C(=O)N1S(=O)(=O)O [Compound 12]
IC50 [1]: 6 nM

C[C@H]1[C@H](NC(=O)/C(=N/OCCNC(=O)c2cc(=O)c(O)c[nH]2)c2cccs2)C(=O)N1S(=O)(=O)O [Compound 13]
IC50 [1]: 10 nM

C[C@H]1[C@H](NC(=O)/C(=N/OCc2cc(=O)c(O)c[nH]2)c2cccs2)C(=O)N1S(=O)(=O)O [Compound 14, (3S)-trans-3-[(E)-2-(2-thienyl)-2{(5-hydroxy-4-pyridon-2-ylmethoxy)imino}acetamido]-4-methyl-2-oxoazetidine-1-sulfonic acid, potassium salt]
IC50 [1]: 40 nM

C[C@H]1[C@H](NC(=O)/C(=N/OCc2cc(=O)c(O)cn2O)c2cccn2C)C(=O)N1S(=O)(=O)O [Compound 15]
IC50 [1]: 900 nM

C[C@H]1[C@H](NC(=O)/C(=N/OCC(N)COC(=O)/C(=N\OCc2cc(=O)c(O)cn2O)c2cccs2)c2cccs2)C(=O)N1S(=O)(=O)O (some centres unmarked) [Compound 16]
IC50 [1]: 4.5 nM

C[C@H]1[C@H](NC(=O)/C(=N\OC(C)(C)C(=O)O)c2csc(N)n2)C(=O)N1S(=O)(=O)O [Ref. compd. I, Aztreonam]
IC50 [1]: 130 nM
β-lactamase inhibitory properties [2]: possesses β-lactamase inhibitory properties

C[C@H]1[C@H](NC(=O)/C(=N\OCc2cc(=O)c(O)cn2O)c2cccs2)C(=O)N1S(=O)(=O)O [Ref. compd. III]
IC50 [1]: 40 nM

C[C@H]1[C@H](NC(=O)/C(=N/OC(C)(C)C(=O)O)c2csc(N)n2)C(=O)N1S(=O)(=O)O [Ref. compd. II]
IC50 [1]: 2000 nM

CC(C)(O/N=C(\C(=O)N[C@@H]1C(=O)N2C(C(=O)[O-])=C(C[n+]3ccccc3)CS[C@H]12)c1csc(N)n1)C(=O)O [ceftazidime]
MIC [3]: > 32 µg/mL
MIC [4]: > 32 µg/mL
MIC [5]: > 32 µg/mL
MIC [6]: > 32 µg/mL
MIC [7]: 16 µg/mL
MIC [8]: 32 µg/mL
MIC [9]: > 32 µg/mL
MIC [10]: > 32 µg/mL
MIC [11]: 32 µg/mL
MIC [12]: > 32 µg/mL
MIC [13]: > 32 µg/mL
MIC [14]: > 32 µg/mL
MIC [15]: > 32 µg/mL
MIC [16]: > 32 µg/mL
MIC [17]: > 32 µg/mL
MIC [18]: > 32 µg/mL
MIC [19]: > 32 µg/mL
MIC [20]: 32 µg/mL
MIC [21]: > 32 µg/mL
MIC [22]: > 32 µg/mL
MIC [23]: 32 µg/mL
MIC [24]: 32 µg/mL
MIC [25]: > 32 µg/mL
MIC [26]: > 32 µg/mL
MIC [27]: > 32 µg/mL
